Reference: ChEMBL document CHEMBL4725227, “Dual-Target Inhibitors Based on HDACs: Novel Antitumor Agents for Cancer Therapy” (J Med Chem, 2020)

Tests used:
Histone deacetylase = experiment: Inhibition of HDAC (unknown origin); type: protein assay, Homo sapiens
THP-1 = experiment: Growth inhibition of human THP-1 cells; type: functional
[1] = molecular target: T1, Epidermal growth factor receptor (Homo sapiens, UniProt P00533); experiment: Inhibition of EGFR (unknown origin)
MDA-MB-468 = experiment: Cytotoxicity against human MDA-MB-468 cells assessed as reduction in cell viability by MTT assay; type: functional, cell-based
KG-1 = experiment: Cytotoxicity against human KG-1 cells assessed as reduction in cell viability by MTT assay; type: functional, cell-based
HeLa = experiment: Cytotoxicity against human HeLa cells assessed as reduction in cell viability by MTT assay; type: functional, cell-based
MDA-MB-231 = experiment: Cytotoxicity against human MDA-MB-231 cells assessed as reduction in cell viability by MTT assay; type: functional, cell-based
HT-29 = experiment: Cytotoxicity against human HT-29 cells assessed as reduction in cell viability by MTT assay; type: functional, cell-based
Histone deacetylase 1 [2] = molecular target: T2, Histone deacetylase 1 (Homo sapiens, UniProt Q13547); experiment: Inhibition of HDAC1 (unknown origin)
T2 sequence (Q13547 whole entry): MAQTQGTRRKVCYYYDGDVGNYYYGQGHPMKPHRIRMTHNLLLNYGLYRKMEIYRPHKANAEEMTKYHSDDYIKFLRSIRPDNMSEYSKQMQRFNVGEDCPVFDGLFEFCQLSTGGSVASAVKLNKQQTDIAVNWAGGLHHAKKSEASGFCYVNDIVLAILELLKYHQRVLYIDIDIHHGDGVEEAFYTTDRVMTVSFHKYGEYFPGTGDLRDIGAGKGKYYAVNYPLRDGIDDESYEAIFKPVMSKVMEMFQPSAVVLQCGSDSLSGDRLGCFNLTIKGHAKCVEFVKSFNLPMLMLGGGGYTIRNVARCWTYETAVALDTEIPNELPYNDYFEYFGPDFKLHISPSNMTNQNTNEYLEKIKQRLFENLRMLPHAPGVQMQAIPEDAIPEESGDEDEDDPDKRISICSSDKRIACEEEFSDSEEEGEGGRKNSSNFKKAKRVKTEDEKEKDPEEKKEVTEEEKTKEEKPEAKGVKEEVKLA

[3] = molecular target: T3, Bromodomain-containing protein 4 (Homo sapiens, UniProt O60885); experiment: Inhibition of BRD4 (unknown origin)
MCF7 [4] = experiment: Cytotoxicity against human MCF7 cells assessed as reduction in cell viability by MTT assay; type: functional, cell-based
[5] = molecular target: Vascular endothelial growth factor receptor 2 (Homo sapiens, UniProt P35968); experiment: Inhibition of VGFR2 (unknown origin)
[6] = molecular target: T3, Bromodomain-containing protein 4; experiment: Inhibition of BRD4 BD2 domain (unknown origin)
OCI-AML-3 = experiment: Antiproliferative activity against human OCI-AML-3 cells by MTT assay; type: functional, cell-based
MV4-11 = experiment: Antiproliferative activity against human MV4-11 cells by MTT assay; type: functional, cell-based
OCI-AML2 = experiment: Antiproliferative activity against human OCI-AML2 cells by MTT assay; type: functional, cell-based
MCF7 [7] = experiment: Cytotoxicity against human MCF7 cells assessed as reduction in cell viability; type: functional, cell-based
DU-145 = experiment: Cytotoxicity against human DU-145 cells assessed as reduction in cell viability; type: functional, cell-based
A-431 = experiment: Cytotoxicity against human A-431 cells assessed as reduction in cell viability by MTT assay; type: functional, cell-based
MCF7 [8] = experiment: Cytotoxicity against human MCF7 cells assessed as reduction in cell viability in presence of SAHA by MTT assay; type: functional, cell-based
A549 = experiment: Cytotoxicity against human A549 cells assessed as reduction in cell viability by MTT assay
[9] = molecular target: Protein deacetylase HDAC6 (Homo sapiens, UniProt Q9UBN7); experiment: Inhibition of recombinant human HDAC6 expressed in baculovirus expression system using Ac-Lys-Tyr-Lys (epsilon-acetyl)-AMC as substrate after 24 hrs by fluorescence assay
Sequence of Protein deacetylase HDAC6 (Q9UBN7 whole entry): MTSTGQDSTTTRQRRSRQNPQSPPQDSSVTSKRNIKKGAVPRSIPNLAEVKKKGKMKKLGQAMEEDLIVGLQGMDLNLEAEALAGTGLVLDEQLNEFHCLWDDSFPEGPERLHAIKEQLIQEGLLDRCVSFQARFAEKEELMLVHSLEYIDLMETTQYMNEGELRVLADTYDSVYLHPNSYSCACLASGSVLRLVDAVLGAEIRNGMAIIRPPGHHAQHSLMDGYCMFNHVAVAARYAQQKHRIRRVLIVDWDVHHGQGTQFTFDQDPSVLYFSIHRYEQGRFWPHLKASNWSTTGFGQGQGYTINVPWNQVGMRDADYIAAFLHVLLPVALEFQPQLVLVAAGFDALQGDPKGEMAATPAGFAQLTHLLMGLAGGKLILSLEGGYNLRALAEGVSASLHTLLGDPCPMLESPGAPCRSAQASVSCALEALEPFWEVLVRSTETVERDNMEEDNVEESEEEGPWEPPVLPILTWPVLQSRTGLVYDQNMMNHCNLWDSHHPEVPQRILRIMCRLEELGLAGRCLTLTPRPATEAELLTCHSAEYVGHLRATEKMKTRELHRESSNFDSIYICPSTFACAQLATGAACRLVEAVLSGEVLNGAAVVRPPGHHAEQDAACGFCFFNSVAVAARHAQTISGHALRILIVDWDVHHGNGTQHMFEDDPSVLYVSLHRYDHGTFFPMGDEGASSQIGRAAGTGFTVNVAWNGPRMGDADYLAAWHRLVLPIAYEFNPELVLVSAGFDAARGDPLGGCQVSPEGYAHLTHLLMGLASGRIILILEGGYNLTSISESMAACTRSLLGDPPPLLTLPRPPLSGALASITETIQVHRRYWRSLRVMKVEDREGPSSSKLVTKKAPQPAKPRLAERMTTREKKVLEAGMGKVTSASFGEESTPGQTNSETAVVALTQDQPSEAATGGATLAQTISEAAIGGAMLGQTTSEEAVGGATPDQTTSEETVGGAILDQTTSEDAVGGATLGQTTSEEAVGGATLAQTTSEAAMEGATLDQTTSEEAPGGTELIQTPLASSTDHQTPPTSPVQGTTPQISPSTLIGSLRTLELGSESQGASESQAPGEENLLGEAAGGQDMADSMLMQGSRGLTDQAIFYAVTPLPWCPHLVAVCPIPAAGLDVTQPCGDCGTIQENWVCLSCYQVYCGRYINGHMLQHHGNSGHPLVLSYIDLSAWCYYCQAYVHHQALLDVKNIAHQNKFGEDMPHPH

Histone deacetylase 3 = Histone deacetylase 3 (Homo sapiens, UniProt O15379); experiment: Inhibition of recombinant human HDAC3 expressed in baculovirus expression system using Ac-Lys-Tyr-Lys (epsilon-acetyl)-AMC as substrate after 24 hrs by fluorescence assay
Sequence of Histone deacetylase 3 (O15379 whole entry): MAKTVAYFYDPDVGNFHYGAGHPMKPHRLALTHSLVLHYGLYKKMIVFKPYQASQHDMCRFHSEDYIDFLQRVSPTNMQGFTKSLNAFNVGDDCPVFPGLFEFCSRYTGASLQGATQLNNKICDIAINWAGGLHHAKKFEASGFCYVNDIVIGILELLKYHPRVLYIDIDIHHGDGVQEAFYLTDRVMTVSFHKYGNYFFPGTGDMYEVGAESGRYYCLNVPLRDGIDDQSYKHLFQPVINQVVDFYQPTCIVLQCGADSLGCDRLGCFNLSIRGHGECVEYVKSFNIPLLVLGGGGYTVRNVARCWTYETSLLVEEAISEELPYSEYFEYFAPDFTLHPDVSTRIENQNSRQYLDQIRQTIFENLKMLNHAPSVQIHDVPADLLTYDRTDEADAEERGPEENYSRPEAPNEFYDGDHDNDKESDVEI

Histone deacetylase 1 [10] = molecular target: T2, Histone deacetylase 1; experiment: Inhibition of recombinant human HDAC1 expressed in baculovirus expression system using Ac-Lys-Tyr-Lys (epsilon-acetyl)-AMC as substrate after 24 hrs by fluorescence assay
[11] = molecular target: T1, Epidermal growth factor receptor; experiment: Inhibition of GST-tagged EGFR (unknown origin) at 10 ug/ml using biotinylated peptide as substrate in presence of ATP relative to control; settings: dose 10.0 µg/ml
[12] = molecular target: Receptor tyrosine-protein kinase erbB-2 (Homo sapiens) (UniProt P04626); experiment: Inhibition of HER2 (unknown origin) at 10 ug/ml using biotinylated peptide as substrate in presence of ATP relative to control; settings: dose 10.0 µg/ml
Sequence of Receptor tyrosine-protein kinase erbB-2 (Homo sapiens) (P04626 whole entry): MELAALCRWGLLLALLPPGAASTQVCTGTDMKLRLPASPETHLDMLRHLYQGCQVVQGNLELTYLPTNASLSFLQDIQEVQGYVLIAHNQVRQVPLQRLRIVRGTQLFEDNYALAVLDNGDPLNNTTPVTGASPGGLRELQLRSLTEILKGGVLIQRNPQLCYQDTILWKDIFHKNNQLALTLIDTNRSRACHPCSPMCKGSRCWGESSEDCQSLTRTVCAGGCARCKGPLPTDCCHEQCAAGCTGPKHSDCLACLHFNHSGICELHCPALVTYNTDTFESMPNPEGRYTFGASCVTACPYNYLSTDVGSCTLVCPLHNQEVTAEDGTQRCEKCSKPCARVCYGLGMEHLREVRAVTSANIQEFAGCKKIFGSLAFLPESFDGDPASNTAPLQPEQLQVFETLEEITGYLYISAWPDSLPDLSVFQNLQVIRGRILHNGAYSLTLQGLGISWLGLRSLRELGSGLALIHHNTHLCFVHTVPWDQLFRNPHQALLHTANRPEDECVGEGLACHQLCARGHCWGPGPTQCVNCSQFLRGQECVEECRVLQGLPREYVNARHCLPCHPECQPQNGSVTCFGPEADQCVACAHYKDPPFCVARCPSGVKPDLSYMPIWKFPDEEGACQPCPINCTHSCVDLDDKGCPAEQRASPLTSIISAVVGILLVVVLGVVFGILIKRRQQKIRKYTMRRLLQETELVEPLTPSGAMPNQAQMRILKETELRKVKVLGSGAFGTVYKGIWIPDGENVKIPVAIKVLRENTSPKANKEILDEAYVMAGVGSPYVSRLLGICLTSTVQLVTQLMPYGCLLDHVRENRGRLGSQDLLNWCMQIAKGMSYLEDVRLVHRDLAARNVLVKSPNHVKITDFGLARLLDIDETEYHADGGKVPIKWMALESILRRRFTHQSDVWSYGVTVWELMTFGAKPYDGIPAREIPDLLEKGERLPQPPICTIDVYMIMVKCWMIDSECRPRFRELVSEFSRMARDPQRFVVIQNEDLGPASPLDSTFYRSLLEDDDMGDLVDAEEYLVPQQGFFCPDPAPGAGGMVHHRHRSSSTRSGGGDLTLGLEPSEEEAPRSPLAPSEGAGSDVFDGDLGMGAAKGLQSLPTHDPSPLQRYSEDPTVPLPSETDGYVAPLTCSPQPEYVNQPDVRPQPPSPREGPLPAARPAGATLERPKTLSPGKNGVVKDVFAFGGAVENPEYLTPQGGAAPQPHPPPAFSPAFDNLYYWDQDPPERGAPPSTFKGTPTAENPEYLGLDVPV

T1 sequence (P00533 whole entry): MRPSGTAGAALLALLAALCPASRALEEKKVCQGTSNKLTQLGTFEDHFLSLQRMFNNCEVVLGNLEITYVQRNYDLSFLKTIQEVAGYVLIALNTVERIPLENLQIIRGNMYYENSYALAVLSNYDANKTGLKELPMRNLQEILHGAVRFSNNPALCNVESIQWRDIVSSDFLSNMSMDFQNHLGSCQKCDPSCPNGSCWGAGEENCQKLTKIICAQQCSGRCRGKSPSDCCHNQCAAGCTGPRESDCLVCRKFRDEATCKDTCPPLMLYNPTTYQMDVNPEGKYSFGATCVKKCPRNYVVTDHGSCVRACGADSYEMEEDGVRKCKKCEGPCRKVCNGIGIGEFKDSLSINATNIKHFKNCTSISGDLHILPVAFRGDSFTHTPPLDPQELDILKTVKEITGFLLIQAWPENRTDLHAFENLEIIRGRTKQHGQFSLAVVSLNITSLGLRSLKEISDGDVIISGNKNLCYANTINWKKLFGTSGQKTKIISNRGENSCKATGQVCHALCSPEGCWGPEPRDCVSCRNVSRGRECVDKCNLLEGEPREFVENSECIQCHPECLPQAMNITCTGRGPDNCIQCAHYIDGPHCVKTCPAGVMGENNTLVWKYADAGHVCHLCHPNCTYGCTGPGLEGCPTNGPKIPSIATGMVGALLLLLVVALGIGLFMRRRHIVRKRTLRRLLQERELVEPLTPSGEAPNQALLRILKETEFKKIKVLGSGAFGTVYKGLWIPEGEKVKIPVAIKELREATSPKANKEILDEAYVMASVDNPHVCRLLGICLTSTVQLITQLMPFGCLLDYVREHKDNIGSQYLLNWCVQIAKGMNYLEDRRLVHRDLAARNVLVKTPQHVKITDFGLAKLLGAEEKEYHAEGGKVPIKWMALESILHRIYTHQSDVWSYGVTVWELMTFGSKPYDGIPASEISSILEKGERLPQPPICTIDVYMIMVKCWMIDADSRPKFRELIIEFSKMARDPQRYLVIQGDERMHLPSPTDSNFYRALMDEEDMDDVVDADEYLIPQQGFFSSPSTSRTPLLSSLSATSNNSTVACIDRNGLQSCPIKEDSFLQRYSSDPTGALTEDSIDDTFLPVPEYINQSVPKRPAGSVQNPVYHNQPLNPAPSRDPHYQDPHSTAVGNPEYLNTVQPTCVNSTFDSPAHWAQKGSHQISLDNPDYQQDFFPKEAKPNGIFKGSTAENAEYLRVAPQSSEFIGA

SMILES | IC50 (Histone deacetylase) | GI50 (THP-1) [nM] | other results
COc1cc(OC)c2c(=O)[nH]c(-c3cc(C)c(OCCCCCC(=O)NO)c(C)c3)nc2c1 | 291 nM | 15500 | 
O=C(CCCCCC(=O)Nc1ccc(O)c(C(=O)Nc2ccc(F)c(F)c2)c1)NO | < 1000 nM |  | 
Cc1ccccc1Cc1cn(CCCCCCC(=O)NO)c2ccc(-c3c(C)noc3C)cc12 | 291 nM | 15500 | 
O=C(CCCCCC(=O)Nc1ccc(O)c(C(=O)Nc2ccc(F)c(Cl)c2)c1)NO | < 1000 nM |  | 
Cc1noc(C)c1-c1ccc2c(c1)c(Cc1ccccc1)cn2CCCCCC(=O)NO | 291 nM | 15500 | 
O=C(CCCCCC(=O)Nc1ccc(O)c(C(=O)Nc2ccc(OCc3cccc(F)c3)c(Cl)c2)c1)NO | < 1000 nM |  | 
Cc1noc(C)c1-c1ccc2c(c1)c(CCc1ccccc1)cn2CCCCCCC(=O)NO | 291 nM | 15500 | 
Cn1cc(-c2ccnc(Nc3ccc(C(=O)NCCCCC(=O)NO)cc3)n2)c2ccccc21 | < 1000 nM |  | 
C#Cc1cccc(NC(=O)c2cc(NC(=O)CCCCCCC(=O)NO)ccc2O)c1 | < 1000 nM |  | 
Cn1cc(-c2ccnc(Nc3ccc(C(=O)Nc4ccccc4N)cc3)n2)c2ccccc21 | < 1000 nM |  | 
Cn1cc(-c2ccnc(Nc3ccc(C(=O)NCCCCCCC(=O)NO)cc3)n2)c2ccccc21 | <= 1 uM |  | IC50 [1]: 5700 nM; IC50 (MDA-MB-468): 230 nM; IC50 (KG-1): 240 nM; IC50 (HeLa): 1850 nM; IC50 (MDA-MB-231): 600 nM; IC50 (HT-29): 790 nM
Cc1ccc(Cc2cn(CCCCCCC(=O)NO)c3ccc(-c4c(C)noc4C)cc23)cc1 | 291 nM | 15500 | 
C#Cc1cccc(NC(=O)c2cc(NC(=O)CCCCCC(=O)NO)c(OC)cc2O)c1 | < 1000 nM |  | 
O=C(CCCCCC(=O)Nc1ccc(O)c(C(=O)Nc2cccc(F)c2)c1)NO | < 1000 nM |  | 
Cc1noc(C)c1-c1ccc2c(c1)c(CCc1ccc(F)cc1)cn2CCCCCCC(=O)NO | 291 nM | 15500 | 
Cc1noc(C)c1-c1ccc2c(c1)c(Cc1ccc(F)cc1)cn2CCCCCCC(=O)NO |  |  | IC50 (Histone deacetylase 1 [2]): 150 nM; IC50 [3]: 670 nM
Cc1noc(C)c1-c1ccc2c(c1)c(CCc1ccccc1)cn2CCCCCC(=O)NO | 291 nM | 15500 | 
Cc1noc(C)c1-c1cc(NC(=O)CCCCCC(=O)NO)cc(C(=O)c2ccccc2)c1 |  |  | IC50 (Histone deacetylase 1 [2]): 150 nM; IC50 [3]: 670 nM
COc1cc(OC)c2c(=O)[nH]c(-c3ccc(OC/C=C/C(=O)NO)cc3)nc2c1 | 291 nM | 15500 | 
C=CC(=O)Nc1cc(Nc2nccc(-c3cn(C)c4ccccc34)n2)c(OC)cc1N(C)CCN(C)C [OSIMERTINIB] | < 1000 nM |  | 
Cc1ccccc1Cc1cn(CCCCCC(=O)NO)c2ccc(-c3c(C)noc3C)cc12 | 291 nM | 15500 | 
Cn1cc(-c2ccnc(Nc3ccc(C(=O)NCCCCCC(=O)NO)cc3)n2)c2ccccc21 | < 1000 nM |  | 

SMILES | IC50 (Histone deacetylase) | GI50 (THP-1) [nM] | other results
COc1cc(OC)c2c(=O)[nH]c(-c3cc(C)c(OCCCCC(=O)NO)c(C)c3)nc2c1 |  |  | IC50 (Histone deacetylase 1 [2]): 150 nM; IC50 [3]: 670 nM
COc1cc(C(=O)NCCCC(=O)NO)ccc1Nc1nccc(-c2cn(C)c3ccccc23)n1 | < 1000 nM |  | 
O=C(CCCCCC(=O)Nc1ccc(O)c(C(=O)Nc2ccc(Cl)c(Cl)c2)c1)NO | < 1000 nM |  | 
COc1cc(OC)c2c(=O)[nH]c(-c3ccc(OCc4cc(C)c(/C=C/C(=O)NO)c(C)c4)cc3)nc2c1 | 291 nM | 15500 | 
Cc1noc(C)c1-c1ccc2c(c1)c(Cc1cccc(C(F)(F)F)c1)cn2CCCCCC(=O)NO | 291 nM | 15500 | 
COc1cc2/c(=N/c3ccc(Br)cc3F)nc[nH]c2cc1OCC1CCN(C)CC1 [VANDETANIB] |  |  | IC50 (MCF7 [4]): 18500 nM
COC(c1c(F)cccc1Cl)c1c[nH]c2ncc(-c3c(C)noc3C)cc12 (stereo unspecified) | 291 nM | 15500 | 
COc1cc2ncnc(Nc3ccc(Br)cc3)c2cc1OCCCCCC(=O)NO | 2.2 nM |  | IC50 (MCF7 [4]): 850 nM; IC50 [5]: 74 nM
COc1cc(OC)c2c(=O)[nH]c(-c3ccc(OCCCC(=O)NO)cc3)nc2c1 | 32 nM | 15500 | IC50 [6]: 225 nM; IC50 (OCI-AML-3): 1090 nM; IC50 (MV4-11): 1670 nM; IC50 (OCI-AML2): 1520 nM
Cc1noc(C)c1-c1ccc2c(c1)c(CCc1ccc(F)cc1)cn2CCCCCC(=O)NO | 291 nM | 15500 | 
C#Cc1cccc(NC(=O)c2cc(NC(=O)CCCCCC(=O)NO)ccc2O)c1 | < 1000 nM |  | 
O=C(CCCCCC(=O)Nc1ccc(O)c(C(=O)Nc2ccccc2)c1)NO | < 1000 nM |  | 
Cn1cc(-c2ccnc(Nc3ccc(C(=O)NCCC(=O)NO)cc3)n2)c2ccccc21 | < 1000 nM |  | 
Cc1ccc(Cc2cn(CCCCCC(=O)NO)c3ccc(-c4c(C)noc4C)cc23)cc1 | 291 nM | 15500 | 
COc1cc(C(=O)NCCCCCC(=O)NO)ccc1Nc1nccc(-c2cn(C)c3ccccc23)n1 | < 1000 nM |  | 
O=C(CCCCOc1ccccc1C(=O)Nc1cccc2[nH]cnc12)NO | 2700 nM |  | IC50 (Histone deacetylase 1 [2]): 150 nM; IC50 [3]: 260 nM
COc1cc(OC)c2c(=O)[nH]c(-c3ccc(OCCCCCCC(=O)NO)cc3)nc2c1 | 291 nM | 15500 | 
O=C(CCCCCC(=O)Nc1ccc(O)c(C(=O)Nc2ccc(Cl)c(C(F)(F)F)c2)c1)NO | < 1000 nM |  | 
Cn1cc(-c2ccnc(Nc3ccc(C(=O)NCCCC(=O)NO)cc3)n2)c2ccccc21 | < 1000 nM |  | 
Cc1noc(C)c1-c1ccc2c(c1)c(Cc1ccc(F)cc1)cn2CCCCCC(=O)NO | 291 nM | 15500 | 
COc1cc(O)c(C(=O)Nc2ccc(F)c(Cl)c2)cc1NC(=O)CCCCCC(=O)NO | < 1000 nM |  | 
CC(=O)N1c2ccc(-c3ccc(NC(=O)CCCCCCC(=O)NO)cc3)cc2[C@H](NC(=O)OC(C)C)C[C@@H]1C |  |  | IC50 (Histone deacetylase 1 [2]): 150 nM

SMILES | IC50 (Histone deacetylase) | GI50 (THP-1) [nM] | other results
Cc1cccc(Cc2cn(CCCCCC(=O)NO)c3ccc(-c4c(C)noc4C)cc23)c1 | 291 nM | 15500 | 
Cc1ccccc1OS(=O)(=O)C1CC2OC1C(c1ccc(NC(=O)CCCCCCC(=O)NO)cc1)=C2c1ccc(O)cc1 (stereo unspecified) |  |  | IC50 (Histone deacetylase 1 [2]): 22 nM; IC50 (MCF7 [7]): 7900 nM; IC50 (DU-145): > 100000 nM
COc1cc(C(=O)NCCCCC(=O)NO)ccc1Nc1nccc(-c2cn(C)c3ccccc23)n1 | < 1000 nM |  | 
COc1cc(OC)c2c(=O)[nH]c(-c3ccc(Oc4ccc(C(=O)NO)cn4)cc3)nc2c1 | 291 nM | 15500 | 
Cc1cccc(Cc2cn(CCCCCCC(=O)NO)c3ccc(-c4c(C)noc4C)cc23)c1 | 291 nM | 15500 | 
O=C(CCCCCCC(=O)Nc1ccccc1)NO [VORINOSTAT] |  |  | IC50 [1]: 900 nM
C#Cc1cccc(Nc2ncnc3cc(OCCOC)c(OCCOC)cc23)c1 [ERLOTINIB] |  |  | IC50 (A-431): 1410 nM; IC50 (MCF7 [8]): 2700 nM; IC50 (A549): 11800 nM
COc1cc(OC)c2c(=O)[nH]c(-c3ccc(OCCCCCCCC(=O)NO)cc3)nc2c1 | 291 nM | 15500 | 
O=C(CCCCCC(=O)Nc1ccc(O)c(C(=O)Nc2cccc(C(F)(F)F)c2)c1)NO | < 1000 nM |  | 
COc1cc(OC)c2c(=O)[nH]c(-c3ccc(OCCCCCC(=O)NO)cc3)nc2c1 | 291 nM | 15500 | 
Cn1cc(-c2ccnc(Nc3ccc(C(=O)NO)cc3)n2)c2ccccc21 | < 1000 nM |  | 
Cc1noc(C)c1-c1ccc2c(c1)c(Cc1ccccc1)cn2CCCCCCC(=O)NO | 291 nM | 15500 | 
COc1cc(C(=O)NCCC(=O)NO)ccc1Nc1nccc(-c2cn(C)c3ccccc23)n1 | < 1000 nM |  | 
COc1cc(C(=O)NCCCCCCC(=O)NO)ccc1Nc1nccc(-c2cn(C)c3ccccc23)n1 | < 1000 nM |  | 
COCCOc1cc2ncnc(Nc3ccc(/C=C/C(=O)NO)cc3)c2cc1OCCOC |  |  | IC50 [9]: 560 nM; IC50 (Histone deacetylase 3): 180 nM; IC50 (Histone deacetylase 1 [10]): 160 nM; inhibition [11]: 70%; inhibition [12]: 84%
COc1cc(OC)c2c(=O)[nH]c(-c3ccc(OCc4ccc(/C=C/C(=O)NO)cc4)cc3)nc2c1 | 291 nM | 15500 | 
C#Cc1cccc(NC(=O)c2cc(OCCCCCCC(=O)NO)ccc2O)c1 | < 1000 nM |  | 
Cc1sc2c(c1C)C(c1ccc(Cl)cc1)=N[C@@H](CC(=O)OC(C)(C)C)c1nnc(C)n1-2 | 291 nM | 15500 | 
COc1cc(OC)c2c(=O)[nH]c(-c3ccc(OCCCCC(=O)NO)cc3)nc2c1 | 291 nM | 15500 | 
COc1cc(OC)c2c(=O)[nH]c(-c3cc(C)c(O)c(C)c3)nc2c1 | 291000 nM | 15500 | 
